Experiments:
Format in all cases: cell-based
P2X7R = molecular target: T1, P2X7R (Mus musculus, UniProt Q9Z1M0); experiment: Whole-cell patch clamp, ATP-induced ionic currents in peritoneal macrophages; details: fixed 500 nM 9f; ATP 100 μM to 25 mM; whole-cell configuration
T1 construct: plated for 24 h before dye uptake assays, whole-cell patch clamp experiments, and IL-1β release assays; endogenous in cells; host or cells: mouse (Swiss Webster) peritoneal macrophages
T1 sequence (Q9Z1M0 1-595): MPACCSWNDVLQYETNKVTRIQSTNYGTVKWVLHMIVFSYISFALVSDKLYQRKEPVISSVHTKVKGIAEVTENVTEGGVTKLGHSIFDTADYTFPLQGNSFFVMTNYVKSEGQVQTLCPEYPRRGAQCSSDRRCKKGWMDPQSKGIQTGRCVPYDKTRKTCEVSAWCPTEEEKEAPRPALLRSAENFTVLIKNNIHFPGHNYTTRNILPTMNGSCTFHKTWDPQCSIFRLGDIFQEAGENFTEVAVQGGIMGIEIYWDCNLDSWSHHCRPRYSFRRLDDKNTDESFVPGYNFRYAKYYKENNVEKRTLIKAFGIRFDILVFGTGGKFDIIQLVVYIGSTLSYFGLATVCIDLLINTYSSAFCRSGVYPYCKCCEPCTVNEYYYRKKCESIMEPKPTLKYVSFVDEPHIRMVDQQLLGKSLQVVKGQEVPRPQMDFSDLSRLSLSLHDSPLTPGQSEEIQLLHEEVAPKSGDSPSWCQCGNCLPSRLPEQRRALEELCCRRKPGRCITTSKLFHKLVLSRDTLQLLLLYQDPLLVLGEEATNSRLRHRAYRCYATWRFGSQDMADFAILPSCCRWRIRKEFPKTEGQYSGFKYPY
Protocol: The whole-cell configuration was used in peritoneal macrophages as previously described (Faria et al., [2005]). All the experiments used bath and pipette solutions with a series resistance set as 6–11 MΩ. Ionic currents with amplitudes < 1,500 pA were not compensated; however, ionic currents above this level were compensated by 88%. The cell capacitance for peritoneal macrophages was (19 ± 1 pF; n = 86), and the recordings were obtained at a holding potential of −60 mV at 37°C.
The saline composition was as follows (in mM): 150 NaCl, 5 KCl, 1 MgCl2, 1 CaCl2, and 10 HEPES (pH 7.4) for the bath solution and 150 KCl, 5 NaCl, 1 MgCl2, 10 HEPES, and 0.1 EGTA (pH 7.4) for the pipette solution (Faria et al., [2018]).
[…] A perfusion chamber (RC-24 chamber, Warner Instrument Corp) operating at a rate of 1 ml/min was used in all experiments (Faria et al., [2018]).

P2X1R = molecular target: T2, P2X1R (Mus musculus, UniProt P51576); experiment: β,γ-meATP-induced intracellular Ca2+ mobilization in J774 cells; details: 100 μM
T2 construct: endogenous in cells; host or cells: J774 cells
T2 sequence (P51576 1-399): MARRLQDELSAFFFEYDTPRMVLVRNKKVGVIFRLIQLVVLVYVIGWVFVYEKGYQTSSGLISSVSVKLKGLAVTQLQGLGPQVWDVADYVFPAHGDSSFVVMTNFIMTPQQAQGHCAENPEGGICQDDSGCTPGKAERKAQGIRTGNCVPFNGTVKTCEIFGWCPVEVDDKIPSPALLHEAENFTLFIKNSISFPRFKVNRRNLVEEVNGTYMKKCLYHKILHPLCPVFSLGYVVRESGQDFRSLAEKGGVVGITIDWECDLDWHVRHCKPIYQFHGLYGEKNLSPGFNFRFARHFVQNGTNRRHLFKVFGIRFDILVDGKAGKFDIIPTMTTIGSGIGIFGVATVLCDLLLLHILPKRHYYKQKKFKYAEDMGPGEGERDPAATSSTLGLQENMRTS
Protocol: (§1) Mouse peritoneal macrophages, PC12 cells, J774 cells, and HEPG2 cells were analyzed by fluorescence microscopy to measure the intracellular Ca^2+ concentrations ([Ca^2+]i). Cells were incubated with 2 μM Fura-2-AM (Molecular Probes) for 30 min, and the [Ca^2+]i mobilization was measured in the F340/F380 ratios with a FlexStation 3 multimode microplate reader (Molecular Devices). Cells were plated in translucent 96-well plates (BD Falcon) for 15 min and then washed and incubated in a saline solution with 150 NaCl, 5 KCl, 1 MgCl2, 1 CaCl2, and 10 HEPES (pH 7.4) for 30 min before measurements of [Ca^2+]i. The Ca^2+ influx was induced by stimulating cells with P2 receptor agonists. P2 receptor antagonists were added 10 min before P2 receptor agonist addition. […] Ionomycin was considered a positive control, and the other recordings were normalized in relation to the AUC.

P2X3R = experiment: α,β-meATP-induced [Ca2+]i shift; details: 100 μM
Protocol: as §1

CCOC(=O)c1cnn(-c2nnc(-c3ccccc3Cl)s2)c1N [Compound 9f]
EC50 of the ATP dose–response curve with fixed inhibitor vs ATP alone (P2X7R): higher
Effect on β,γ-meATP-induced intracellular Ca2+ mobilization (P2X1R): did not reduce
Effect on activity of P2X3R agonist α,β-meATP (P2X3R): did not reduce

Reference: paper PMC6511888, “Synthesis, Biological Evaluation, and Molecular Modeling Studies of New Thiadiazole Derivatives as Potent P2X7 Receptor Inhibitors” (Frontiers in Chemistry, 2019)
